B1: 7-HEYJA000003: gRNA targeting human B2M; targeting domain SEQ ID NO: 114; sgRNA SEQ ID NO: 165 (nucleic acid)
guide: CUCGCGCUACUCUCUCUUUCGUUUUAGAGCUAGAAAUAGCAAGUUAAAAUAAGGCUAGUCCGUUAUCAACUUGAAAAAGUGGCACCGAGUCGGUGCUUUU
modifications: listed as RNA, chemistry not given here
B2: 5-CR004366: gRNA targeting human B2M; targeting domain SEQ ID NO: 112; sgRNA SEQ ID NO: 163; from Dharmacon (nucleic acid)
guide: CUGAAUCUUUGGAGUACCUGGUUUUAGAGCUAGAAAUAGCAAGUUAAAAUAAGGCUAGUCCGUUAUCAACUUGAAAAAGUGGCACCGAGUCGGUGCUUUU
modifications: listed as RNA, chemistry not given here
notes: gRNA targeting human B2M; from Dharmacon
B3: CR006979: gRNA targeting human B2M; targeting domain SEQ ID NO: 140; sgRNA SEQ ID NO: 177 (nucleic acid)
guide: UCCUGAAUUGCUAUGUGUCUGUUUUAGAGCUAGAAAUAGCAAGUUAAAAUAAGGCUAGUCCGUUAUCAACUUGAAAAAGUGGCACCGAGUCGGUGCUUUU
modifications: listed as RNA, chemistry not given here
B4: 3-CR004366: gRNA targeting human B2M; targeting domain SEQ ID NO: 110; sgRNA SEQ ID NO: 161; from Dharmacon (nucleic acid)
guide: AAGUCAACUUCAAUGUCGGAGUUUUAGAGCUAGAAAUAGCAAGUUAAAAUAAGGCUAGUCCGUUAUCAACUUGAAAAAGUGGCACCGAGUCGGUGCUUUU
modifications: listed as RNA, chemistry not given here
notes: as for B2
B5: 10-HEYJA000007: gRNA targeting human B2M; targeting domain SEQ ID NO: 117; sgRNA SEQ ID NO: 168 (nucleic acid)
guide: AGUCACAUGGUUCACACGGCGUUUUAGAGCUAGAAAUAGCAAGUUAAAAUAAGGCUAGUCCGUUAUCAACUUGAAAAAGUGGCACCGAGUCGGUGCUUUU
modifications: listed as RNA, chemistry not given here
B6: 2-CR004366: gRNA targeting human B2M; targeting domain SEQ ID NO: 109; sgRNA SEQ ID NO: 160; from Dharmacon (nucleic acid)
guide: CGUGAGUAAACCUGAAUCUUGUUUUAGAGCUAGAAAUAGCAAGUUAAAAUAAGGCUAGUCCGUUAUCAACUUGAAAAAGUGGCACCGAGUCGGUGCUUUU
modifications: listed as RNA, chemistry not given here
notes: as for B2
B7: 11-HEYJA000008: gRNA targeting human B2M; targeting domain SEQ ID NO: 118; sgRNA SEQ ID NO: 169 (nucleic acid)
guide: CCACCUCUUGAUGGGGCUAGGUUUUAGAGCUAGAAAUAGCAAGUUAAAAUAAGGCUAGUCCGUUAUCAACUUGAAAAAGUGGCACCGAGUCGGUGCUUUU
modifications: listed as RNA, chemistry not given here

Legend:
human limbal stem cells = test: Human limbal stem cell population expansion and measurement (expansion factor, p63alpha-positive cells); format: cell-based; conditions: 10 micromolar in XVIVO15 medium, two passages; for Expansion factor: ratio of expanded population to seeded cells; for Percentage of p63a-positive cells: share of Sytox Orange-positive nuclei expressing p63alpha
Method: Cells were cultured at 37° C. in 5% CO2.
For each compound, two sets of cultures were generated. A first set of cultures was fixed in 4% PFA for 20 minutes at room temperature after cells isolated from the cornea had attached to the cell culture dish (typically 24 h after cell plating). A second set of cultures was fixed in 4% PFA for 20 minutes at room temperature after being cultured for two passages. Cells were passaged when they reached 90-100% confluence.
In order to observe that the expanded cell population expressed p63alpha, this was measured by immunohistochemistry as follows. The fixed cell cultures were permeabilized and blocked in a blocking solution of 0.3% Triton X-100 (Sigma-Aldrich) and 3% donkey serum in PBS for 30 minutes. Cells were then labeled with primary antibody in the blocking solution for 12 hours at 4° C. Primary antibody used was p63alpha from Cell Signalling. Samples were washed in PBS three times and donkey-raised secondary antibody Alexa Fluor 488 (Molecular Probes) at 1:500 dilution were applied for 30 minutes at room temperature. Cell nuclei were then labeled in a solution of 0.5 micromolar of Sytox Orange (ThermoFisher) in PBS for 5 minutes at room temperature.
To evaluate the percentage of p63alpha-positive cells, the number of cells labeled by the anti-p63alpha antibody was counted and the total number of cells was determined by counting the number of nuclei stained by Sytox Orange. The proportion of p63alpha-positive cells was then determined by calculating the percentage of Sytox-orange-positive nuclei that also expressed p63alpha.
To evaluate cell expansion ratios, nuclei were counted using a Zeiss LSM 880 confocal microscope. The expansion factor was then determined by calculating the ratio of the expanded population of cells to population of seeded cells.

human B2M = test: CRISPR/Cas9-mediated deletion of B2M in HEK293 (lipofection, FACS); format: cell-based; conditions: lipofection of tracrRNA, gRNA and Cas9 mRNA; FACS after 72 h
Method: One day before transfection, 500′000 HEK293cells (ATCC, Manassas, VA) were plated in a 35 mm dish and grown in DMEM/10%FBS. The following day, cells were transfected with a mixture of tracrRNA-gRNA-Cas9 mRNA. A stock of 10 micromolar was prepared resuspending 20 nanomoles of gRNA and 20 nanomoles tracrRNA in 2000 microlitre 10 millimolar Tris buffer pH7.4 each.
The mixture was added drop wise to the culture dish in 2.5 ml DMEM/10%FBS medium. The transfection reagent alone represented the transfection negative control.
After 6 h incubation in 5% CO2 at 37° C. medium was replaced with fresh DMEM/10%FBS medium. After 72 h in a 5% CO2 incubator cells were prepared for FACS analysis. FACS analysis: HEK293 cells were treated with Accutase (ThermoFisher, Cat # A1110501) for 20 minutes in 5% CO2 at 37° C. The reaction was stopped by using cell culture medium containing 10% Serum and transferred to a falcon tube for a centrifugation step (1000 rpm, 5 minutes). After aspirating the medium cells were resuspended in 200 microlitre FACS buffer (PBS/10%FBS).
To analyze the expression of B2M and HLA-ABC, 5 microlitre APC mouse anti-human β2-microglobulin antibody (Biolegend, Cat #316312) and 20 microlitre PE mouse anti-human HLA-ABC antibody (BD Bioscience, Cat # 560168) were added to the cell suspension and incubated for 30 minutes on ice. Cells were washed 3 times after antibody labelling with FACS buffer and resuspended in 500 microlitre in FACS buffer.
Each sample was transferred to one well of a round bottom 96 well plate and analyzed on a BD LSRFortessa X-20 device. FACS data were analyzed using BD FACSDiva software.

B2M = test: sgRNA screening for B2M knockout in LSCs (nucleofection, FACS); format: cell-based, human; conditions: Cas9 protein SEQ ID NO: 106, LSCs at passage 3, FACS after around 3 days
Method: Cells were cultured under these conditions for 24-48 hours at 37° C. in 5% CO2.
LSCs were nuclofected with selected gRNAs (Table 6) followed by FACS analysis / MACS separation.
After scraping the cells, the reaction was stopped by using cell culture medium containing 10% Serum and transferred to a falcon tube. After counting cells using Vi-cell 300′000 cells were prepared per reaction by transferring 300′000 cells in single tubes and centrifuged at 1000 rpm for 5 min. The supernatant was aspirated using manually pipetting to avoid cell loss and the cells were resuspended in the Stem cell nucleofector solution II (Lonza, Cat #VPH-5022). Resuspend cells in nucleofector solution immediately before adding the Cas9 RNP:sgRNA mixture. To obtain the nucleofection mixture, 5 µg high concentrated (≥5 µg/µl) Cas9 protein of SEQ ID NO: 106 (volume = 0.78 µl) was mixed with 19.5 µg sgRNA of Table 6 (volume = 12.2 µl) and incubated for 20 min at room temperature. […] The Cas9 protein-guideRNA complex was added to the cell suspension and transferred to the electroporation cuvette immediately. Cells were transfected using the nucelofector device (Lonza, Amaxa Nucleofector II) and program A023. After nucleofection cells were transferred from cuvette to one well of a 24 well synthemax coated plate containing pre-warmed LSC medium including 3 µM LATS compound and 10 µM Rock inhibitor Y-27632 (Nature 1997, vol. 389, pp. 990-994). Incubate LSCs in a 5% CO2 incubator for around 3 days until cells are 90% confluent.
LSCs were treated with TryLE®Express Enzym (ThermoFisher, Cat #12605010) for 15 minutes in 5% CO2 at 37° C. After scraping the cells, the reaction was stopped by using cell culture medium containing 10% Serum and transferred to a falcon tube for a centrifugation step (1000 rpm, 5 minutes). After aspirating the medium cells were resuspended in 200 µl FACS buffer (PBS/10%FBS).
To analyze the expression of B2M and HLA-ABC, 5 µl APC mouse anti-human β2-microglobulin antibody (Biolegend, Cat#316312) and 20 µl PE mouse anti-human HLA-ABC antibody (BD Bioscience, Cat # 560168) were added to the cell suspension and incubated for 30 minutes on ice.
Cells were washed 3 times after antibody labelling with FACS buffer and resuspended in 200 µl in FACS buffer (depending on the cell number).
FACS data were analyzed using BD FACSDiva software and FlowJo software.

| Molecule | Expansion factor (human limbal stem cells) | Percentage of p63a-positive cells (human limbal stem cells) [%] | B2M knockout efficiency in HEK293 (human B2M) [%] | B2M knockout efficiency in LSCs after nucleofection (B2M) [%] |
| --- | --- | --- | --- | --- |
| c1cc(-c2nc(NC3CCCC3)c3ccncc3n2)ccn1 [N-cyclopentyl-2-(pyridin-4-yl)pyrido[3,4-d]pyrimidin-4-amine] | 1048 | 87 |  |  |
| CC(C)Nc1nc(-c2ccncc2)nc2cnccc12 [N-(propan-2-yl)-2-(pyridin-4-yl)pyrido[3,4-d]pyrimidin-4-amine] | 1275 | 93 |  |  |
| FC(F)(F)C1(Nc2nc(-c3ccncc3)cc3cnccc23)CC1 [3-(pyridin-4-yl)-N-(1-(trifluoromethyl)cyclopropyl)-2,6-naphthyridin-1-amine] | 1241 | 95 |  |  |
| CCCNc1nc(-c2ccncc2)nc2cnccc12 [N-propyl-2-(pyridin-4-yl)pyrido[3,4-d]pyrimidin-4-amine] | 1423 | 93 |  |  |
| CCCNc1nc(-c2c[nH]nc2C(F)(F)F)nc2cnccc12 [N-propyl-2-(3-(trifluoromethyl)-1H-pyrazol-4-yl)pyrido[3,4-d]pyrimidin-4-amine] | 991 | 86 |  |  |
| CC(C)(Nc1nc(-c2ccncc2Cl)nc2cnccc12)C(F)(F)F [2-(3-chloropyridin-4-yl)-N-(1,1,1-trifluoro-2-methylpropan-2-yl)pyrido[3,4-d]pyrimidin-4-amine] | 961 | 87 |  |  |
| CC(C)(C)Nc1cc(-c2ccncc2)nc2cnccc12 [Example 2, N-(tert-butyl)-2-(pyridin-4-yl)-1,7-naphthyridin-4-amine] | 1717 | 93 |  |  |
| CC(C)(CO)Nc1nc(-c2ccncc2)nc2cnccc12 [2-methyl-2-{[2-(pyridin-4-yl)pyrido[3,4-d]pyrimidin-4-yl]amino}propan-1-ol] | 1160 | 89 |  |  |
| CC1CCCC1Nc1nc(-c2ccncc2)nc2cnccc12 (stereo not drawn) [N-(2-methylcyclopentyl)-2-(pyridin-4-yl)pyrido[3,4-d]pyrimidin-4-amine] | 976 | 86 |  |  |
| FC(F)(F)C1CN(c2nc(-c3ccncc3)nc3cnccc23)CCN1 (stereo not drawn) [2-(pyridin-4-yl)-4-(3-(trifluoromethyl)piperazin-1-yl)pyrido[3,4-d]pyrimidine] | 1051 | 90 |  |  |
| FC(F)(F)C1(Nc2nc(-c3ccncc3)nc3cnccc23)CCC1 [2-(pyridin-4-yl)-N-[1-(trifluoromethyl)cyclobutyl]pyrido[3,4-d]pyrimidin-4-amine] | 1712 | 95 |  |  |
| CC1(Nc2cc(-c3ccncc3)cc3cnccc23)CC1 [N-(1-methylcyclopropyl)-7-(pyridin-4-yl)isoquinolin-5-amine] | 681 | 80 |  |  |
| O[C@H]1CCC[C@@H]1Nc1nc(-c2ccncc2)nc2cnccc12 [(1S,2S)-2-{[2-(pyridin-4-yl)pyrido[3,4-d]pyrimidin-4-yl]amino}cyclopentan-1-ol] | 39 | 6 |  |  |
| B1 |  |  | 37 | 8 |
| B2 |  |  | 33 | 2 |
| B3 |  |  |  | 2 |
| B4 |  |  | 12 | 2 |
| B5 |  |  | 13 | 1 |
| B6 |  |  | 33 | 2 |
| B7 |  |  | 3 | 1 |

Reference: patent US20230348852A1, “METHODS AND COMPOSITIONS FOR OCULAR CELL THERAPY” (NOVARTIS AG, priority 2020, published 2023)
